The nature of the data set: gradient 5% acetonitrile 3 min, to 50% in 2 min, to 85% in 15 min, held 3 min, 100 µL/min. The note with it: column: Zorbax Extend-C18 2.1 x 50 mm; eluents: water / acetonitrile, 0.1% formic acid. The essentials:
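Retention times come from adduct peaks that were picked computationally and then checked by hand. The standards, pure and pooled in mixtures of ~100 molecules, were run on a Zorbax Extend-C18 column (2.1 × 50 mm, 1.8 μm) at 100 μL/min with water and acetonitrile, each with 0.1% formic acid. Detection was by quadrupole time-of-flight mass spectrometry in positive and negative ionization mode, with a dead volume of 40 μL and a dwell volume of 900 μL.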
For the molecule `COc1cccc(CNC(=O)C2CCN(S(=O)(=O)c3cn(C(C)C)cn3)CC2)c1`, the RP-LC retention time was 714 s.

In turn, `Cc1ccn2c(Nc3ccc4c(c3)OCO4)c(-c3ccc(Cl)cc3)nc2c1` had an RP-LC retention time of 736 s.

The molecule `Cc1cc2[nH]c(C(=O)Nc3ccc(F)cc3F)c(CN3CCOCC3)c2s1` yielded an RP-LC retention time of 710 s. Turning to `O=C(C1CCCN(c2nccnc2Sc2ccccc2)C1)N1CCCCCC1` (centres undefined), the RP-LC retention time is 1120 s.

`COc1ccc(-c2nnc(CC(=O)N3CCC4(CC3)OCCO4)o2)cc1` returned an RP-LC retention time of 681 s.

Turning to `O=C(NCc1ccc(F)cc1)c1c(O)c2cccnc2n(-c2cccc(F)c2)c1=O`, the RP-LC retention time came out at 1140 s. In the case of `CN(C)c1ccc(C(=O)Nc2cnc(N3CCCCC3)nc2)cc1` it was 882 s; in that of `Cc1ccc(C)c(NC(=O)Cn2c(C(C)C)nc3c(c2=O)CCN(Cc2ccccc2)C3)c1`, 734 s; in that of `COc1nc2ccccc2nc1N1CCCC(C(=O)NC2CCCC(C)C2C)C1` (centres undefined), 1160 s.

The molecule `O=C(Cc1c(F)cccc1Cl)N1C[C@@H]2C[C@H]1C[C@@H]2NS(=O)(=O)c1cccs1` showed an RP-LC retention time of 766 s. In the case of `CC(C)NC(=O)N(CC(=O)N1CCc2sccc2C1COc1ccccc1)C(C)C` (centres undefined) it was 892 s; in that of `O=C(Cc1ccc(Br)cc1)N1CCN(c2cc(-c3ccc(Cl)cc3)[nH]n2)CC1`, 953 s; in that of `CN1CCCn2cc(S(=O)(=O)Nc3cc(F)cc(F)c3)cc2C1=O`, 718 s. Molecule `CNC(=O)N1C[C@@H](CN(C)C)[C@H](NC(=O)C2(c3ccc(OC)cc3)CC2)C1` came in with an RP-LC retention time of 572 s. As for `COc1ccc(C(C)NC(=O)C2CCN(c3cnc4nccnc4c3)CC2)cc1OC` (centres undefined), the RP-LC retention time was 664 s. In the case of `CCS(=O)(=O)N1CCC(F)(c2nc(-c3ccccc3)no2)CC1` it was 952 s; in that of `COc1ccc(-c2cn3c(CC(=O)Nc4ccc5c(c4)OCCO5)csc3n2)cc1OC`, 684 s. In the case of `CCOC(=O)C1CCCN(C(=O)c2ccc(SCCN3CCCCC3)nc2)C1` (centres undefined) it was 629 s. For `CC(C)c1ccc(NC(=O)C2CCCN2S(=O)(=O)c2cc3c(cc2Cl)NC(=O)CO3)cc1` (centres undefined) the value was 948 s; for `O=C(CC1CCN(C(=O)NCc2ccccc2)CC1)N1CCCCC1`, 703 s. Molecule `COc1ccc(-c2nc(CCS(=O)(=O)c3ccc(Cl)cc3)no2)cc1OC` displayed an RP-LC retention time of 946 s. Molecule `CC(C)c1ccc(NC(=O)Cn2cnc3c(sc4nc(-c5ccccc5)ccc43)c2=O)cc1` came in with an RP-LC retention time of 1180 s. For `CCc1nc(OCC(=O)Nc2ccccc2Br)c2ccccc2n1` the value was 827 s. In the case of `Cc1cc2nn(CC(=O)Nc3ccc(F)cc3)c(=O)n2c(Nc2ccc(F)cc2)n1` it was 972 s; in that of `O=C(Cc1cn2cc(F)ccc2n1)Nc1ccccc1`, 580 s; in that of `O=C(Cc1ccccc1F)N1CCCn2nc(-c3ccc(Cl)cc3)cc2C1`, 979 s. Molecule `COc1ccc(C2C(C(=O)N3CCCC3)c3cc(OC)c(OC)cc3C(=O)N2C)cc1OC` (centres undefined) yielded an RP-LC retention time of 660 s.

As to `O=C(NCCCn1nc(-c2cccnc2)ccc1=O)c1ccc(F)cc1F`, the RP-LC retention time came to 569 s. For `O=C(CCCNC(=O)c1cc(-c2ccco2)on1)Nc1cccc2cccnc12` the value was 805 s; for `N#CCCN1CCN(c2cc(C(=O)O)c3cc(NC(=O)c4cccc(Cl)c4)ccc3n2)CC1`, 614 s; for `CCn1c(=O)c2ccnn2c2ccc(C(=O)NC3CCCC3)cc21`, 587 s. In the case of `Clc1ccc2nc(-c3ccc(N4CCOCC4)cc3)c(Nc3ccc4c(c3)OCO4)n2c1` it was 715 s; in that of `CSc1ccc(-c2nc3cnccn3c2Nc2ccc(C(N)=O)cc2)cc1`, 658 s; in that of `CCc1nnc(-c2cn(CC(=O)NCc3cccc(Br)c3)c3ccccc23)o1`, 867 s.

In turn, `CC(C)NC(=O)CN1C(=O)COc2ccc(C(=O)NC3CCCC3)cc21` had an RP-LC retention time of 712 s. In turn, `COC(=O)Cn1c(C2CC(=O)N(c3cc(Cl)ccc3OC)C2)nc2ccccc21` (centres undefined) displayed an RP-LC retention time of 758 s.

In turn, `Cc1oc(C2CCN(S(=O)(=O)c3cc(F)ccc3F)CC2)nc1C(=O)N(C)C` yielded an RP-LC retention time of 816 s. In the case of `Clc1ccccc1-c1noc(Cc2nnc(-c3cccc(Br)c3)o2)n1` it was 1100 s; in that of `COc1ccc(C2CC(=O)c3c(C)nn(-c4nc5ccccc5[nH]4)c3C2)c(OC)c1` (centres undefined), 1020 s; in that of `CCOc1ccc(CC(=O)N2CCCn3nc(-c4cccs4)cc3C2)cc1`, 850 s.

The molecule `COC(=O)c1cccc(Nc2c(-c3ccc(C)cc3)nc3cnc(Br)cn23)c1` registered an RP-LC retention time of 994 s.

`CCN1CCCn2cc(S(=O)(=O)NCc3cccc(C)c3)cc2C1=O` yielded an RP-LC retention time of 780 s. In the case of `CC(C)c1ccc(NC(=O)Cn2nc(N3CCSCC3)c3ccccc3c2=O)cc1` it was 1070 s.

`Cc1ccc(CNC(=O)C2(C)CCN(S(=O)(=O)c3ccc(C)c(C)c3)CC2)cc1` had an RP-LC retention time of 1050 s.

Turning to `O=C(N[C@H]1C[C@@H]2C[C@H]1CN2S(=O)(=O)c1ccc(C(F)(F)F)cc1)c1cccnc1`, the RP-LC retention time came to 794 s.

Molecule `CC(C)CN(C[C@@H](O)[C@H](Cc1ccccc1)NC(=O)O[C@H]1CO[C@H]2OCC[C@H]21)S(=O)(=O)c1ccc(N)cc1` returned an RP-LC retention time of 830 s.

`Cc1noc(C)c1CN1CCC(n2c(C)cnc2-c2ccncc2)C1` (centres undefined): the RP-LC retention time is 525 s. For `Cc1ccc2c(c1)N(Cc1ccccc1)N=C(C(=O)N1CCCCC1)S2(=O)=O` the value was 1010 s; for `CCCn1cc(CCNS(=O)(=O)CC)c2cccnc21`, 661 s; for `O=C(Cn1nc2n(c1=O)CCCC2)Nc1cccc(C(F)(F)F)c1`, 705 s. In the case of `COCc1cnc2c(c1SCc1ccc(C)cc1)c(=O)n(C)c(=O)n2C`, the RP-LC retention time was determined as 1060 s. For `O=C(NCCCOC(=O)c1ccccc1)c1ccncc1` the value was 613 s; for `c1cc(-c2nc(-c3ccnc(N4CCOCC4)c3)no2)ccn1`, 718 s; for `O=C(Nc1cccc(-c2nnc3n2CCCC3)c1)c1ccc2ccccc2n1`, 779 s. In the case of `CCc1cccc(C)c1N(C(=O)Cn1c(CC)nc2ccccc21)C(C)COC` (centres undefined) it was 776 s; in that of `Cc1ccc(-c2ncc3c(=O)n(CC(=O)N4CCCC4)c(=O)n(C)c3n2)cc1`, 888 s. In the case of `O=C(c1ccc(Br)cc1)N1CCc2cc(-c3ccno3)ccc21` it was 1030 s; in that of `Cc1cc2c(cc1S(=O)(=O)N1CCCCC1)N(C(=O)C1CC1)CC2`, 980 s; in that of `Cc1cc(C)n(-c2ccc(SCc3ccccc3Cl)nn2)n1`, 1150 s. Molecule `Cc1cccc(-c2ncccc2CNS(=O)(=O)c2ccc(F)c(F)c2)c1` came in with an RP-LC retention time of 755 s.

In turn, `COCc1noc([C@@H]2CC(F)(F)CN2C(=O)C2CCCC2)n1` returned an RP-LC retention time of 810 s.

For the molecule `CCOC(=O)c1ccc(Nc2c(C(=O)N3CCC(C)CC3)cnc3nc(C)ccc23)cc1`, the RP-LC retention time worked out at 675 s. In the case of `Cc1cc(C)n(CCC(=O)N[C@@H]2CN(S(C)(=O)=O)C[C@H]2CN(C)C)n1`, the RP-LC retention time was found to be 564 s. In the case of `COc1ccc(C(=O)NCC(c2cccn2C)N2CCCC2)c(OC)c1OC` (centres undefined) it was 566 s; in that of `c1ccc(N2CCN(c3c4c(nc5ncnn35)CCC4)CC2)nc1`, 563 s.

As to `Cc1cc(S(=O)(=O)N2C[C@H](F)C[C@@H]2C(=O)N2CCOCC2)ccc1Cl`, the RP-LC retention time is 753 s.

Molecule `COc1ncccc1CNC(=O)c1cnn2cccnc12` came in with an RP-LC retention time of 638 s. In the case of `Cc1cc(N2CCN(C)CC2)nc2ccc(NC(=O)c3cccc([N+](=O)[O-])c3)cc12` it was 576 s; in that of `Cc1ccc(Nc2c(-c3ccc(N(C)C)cc3)nc3cnccn23)cc1`, 855 s; in that of `COc1ccc(N2CC(c3noc(-c4cccc(OC)c4)n3)CC2=O)cc1` (centres undefined), 922 s.

`Cc1ccc(N2CC(c3noc(-c4ccc5ccccc5n4)n3)CC2=O)cc1` (centres undefined): the RP-LC retention time was found to be 899 s.

Consider `Cc1noc2ncn(CC(=O)Nc3ccccc3Br)c(=O)c12`, for which the RP-LC retention time worked out at 761 s. In the case of `CCOC(=O)c1noc2ncnc(N3CCN(c4ccccc4F)CC3)c12` it was 1070 s. In the case of `Cc1cnc(C(=O)N2CCCn3ccnc3C2C2CCCC2)cn1` (centres undefined) it was 582 s; in that of `COc1ccc(S(=O)(=O)N2CCCC(C(=O)NC3CC3)C2)cc1Cl` (centres undefined), 780 s. For `CCN1C=C(C(=O)OCc2cccc(Cl)c2)C(C)=NS1(=O)=O` the value was 1050 s; for `COc1cc(Nc2nc(-c3nnn(-c4ccc(Cl)cc4)c3C)ns2)cc(OC)c1`, 1100 s; for `Cc1[nH]nc(-c2c(C)sc(C)c2S(=O)(=O)NCCC2=CCCCC2)c1C`, 1210 s.

With `CCOC(=O)c1cc(S(=O)(=O)N2CCCC2C(=O)N2CCCCC2)cn1C` (centres undefined), the RP-LC retention time is 767 s.

Values taken from the METLIN SMRT retention time set (Domingo-Almenara et al. 2019).
